According to ChEMBL document CHEMBL5500324, “The potential of marine-derived piperazine alkaloids: Sources, structures and bioactivities” (Eur J Med Chem, 2024):
≈ marks a conversion by molar mass, not a printed value.

Key:
L5178Y = assay: Cytotoxicity against mouse L5178Y cells assessed as reduction in cell growth by MTT assay; type: functional, cell-based
K562 = assay: Cytotoxicity against human K562 cells assessed as reduction in cell growth by MTT assay; type: functional, cell-based
[1] = Cytotoxicity against human A2780cis cells assessed as cell growth inhibition by SRB assay; type: functional, cell-based
P388 [2] = assay: Anticancer activity against mouse P388 cells assessed as inhibition of cell growth; type: functional; conditions: read-out: ED50 (the source's name)
BXPC-3 = assay: Growth inhibition of human BXPC-3 cells assessed as reduction in cell viability measured after 3 days by CCK-8 assay; type: functional; conditions: BXPC-3, 72 h, time 3 day
MCF7 [3] = assay: Growth inhibition of human MCF7 cells; type: functional
SF-268 [4] = assay: Growth inhibition of human SF-268 cells; type: functional
NCI-H460 [5] = assay: Growth inhibition of human NCI-H460 cells; type: functional
DU-145 [6] = assay: Growth inhibition of human DU-145 cells; type: functional
SK-N-SH = assay: Growth inhibition of human SK-N-SH cells; type: functional
SW-1736 = assay: Growth inhibition of human SW-1736 cells; type: functional
FaDu = assay: Growth inhibition of human FaDu cells; type: functional
KM-20L2 = assay: Growth inhibition of human KM-20L2 cells; type: functional
HepG2 [7] = assay: Cytotoxicity against human HepG2 cells; type: functional, cell-based
MCF7 [8] = assay: Cytotoxicity against human MCF7 cells; type: functional, cell-based
HCT-116 [9] = assay: Cytotoxicity against human HCT-116 cells; type: functional, cell-based
HEp-2 = assay: Cytotoxicity against human HEp-2 cells assessed as reduction in cell growth; type: functional, cell-based
HeLa = assay: Cytotoxicity against human HeLa cells; type: functional, cell-based
P388 [10] = assay: Cytotoxicity against mouse P388 cells assessed as cell growth inhibition; type: functional; conditions: read-out: ED50 (the source's name)
[11] = Cytotoxicity against mouse FM3A tsFT210 cells assessed as inhibition of cell growth; type: functional, cell-based
U-937 [12] = assay: Cytotoxicity against human U-937 cells assessed as reduction in cell viability incubated for 72 hrs by MTT assay; type: functional, cell-based; conditions: U-937, 72 h
PC-3 [13] = assay: Cytotoxicity against human PC-3 cells assessed as reduction in cell viability measured after 72 hrs by MTT assay; type: functional, cell-based; conditions: PC-3, 72 h
HEK293 = assay: Cytotoxicity against HEK293 cells assessed as cell growth inhibition; type: functional, cell-based; conditions: Homo sapiens
HCT-116 [14] = assay: Cytotoxicity against human HCT-116 cells assessed as reduction in cell viability incubated for 24 hrs by MTT assay; type: functional, cell-based; conditions: HCT-116, 24 h
RKO = assay: Cytotoxicity against human RKO cells assessed as inhibition of cell growth measured after 48 hrs by MTT assay; type: functional, cell-based
HCT-116 [15] = assay: Cytotoxicity against human HCT-116 cells assessed as reduction in cell viability incubated for 72 hrs by MTT assay; type: functional, cell-based; conditions: HCT-116, 72 h
SF-268 [16] = assay: Cytotoxicity against human SF-268 cells assessed as reduction in cell growth incubated for 48 hrs by SRB assay; type: functional, cell-based; conditions: SF-268, 48 h
MCF7 [17] = assay: Cytotoxicity against human MCF7 cells assessed as reduction in cell growth incubated for 48 hrs by SRB assay; type: functional, cell-based; conditions: MCF7, 48 h
NCI-H460 [18] = assay: Cytotoxicity against human NCI-H460 cells assessed as reduction in cell growth incubated for 48 hrs by SRB assay; type: functional, cell-based; conditions: NCI-H460, 48 h
HepG2 [19] = assay: Cytotoxicity against human HepG2 cells assessed as reduction in cell growth incubated for 48 hrs by SRB assay; type: functional, cell-based; conditions: HepG2, 48 h
SF-268 [20] = assay: Cytotoxicity against human SF-268 cells assessed as reduction in cell growth incubated for 72 hrs by SRB assay; type: functional, cell-based; conditions: SF-268, 72 h
MCF7 [21] = assay: Cytotoxicity against human MCF7 cells assessed as reduction in cell growth incubated for 72 hrs by SRB assay; type: functional, cell-based; conditions: MCF7, 72 h
HepG2 [22] = assay: Cytotoxicity against human HepG2 cells assessed as reduction in cell growth incubated for 72 hrs by SRB assay; type: functional, cell-based; conditions: HepG2, 72 h
NCI-H460 [23] = assay: Cytotoxicity against human NCI-H460 cells assessed as reduction in cell growth incubated for 72 hrs by SRB assay; type: functional, cell-based; conditions: NCI-H460, 72 h
U-937 [24] = assay: Cytotoxicity against human U-937 cells assessed as reduction in cell viability; type: functional, cell-based
PC-3 [25] = assay: Cytotoxicity against human PC-3 cells assessed as reduction in cell viability; type: functional, cell-based
HCT-116 [26] = assay: Antiproliferative activity against human HCT-116 cells assessed as reduction in cell viability incubated for 24 hrs by MTT assay; type: functional, cell-based; conditions: HCT-116, 24 h
NCI-H460 [27] = assay: Cytotoxicity against human NCI-H460 cells assessed as reduction in cell viability incubated for 48 hrs by MTT assay; type: functional, cell-based; conditions: NCI-H460, 48 h
NCI-H23 = assay: Cytotoxicity against human NCI-H23 cells assessed as reduction in cell viability incubated for 48 hrs by MTT assay; type: functional, cell-based; conditions: NCI-H23, 48 h
A549 = assay: Cytotoxicity against human A549 cells assessed as reduction in cell viability measured after 24 hrs by MTT assay; type: functional, cell-based; conditions: A549, 24 h
[28] = Cytotoxicity against human BEAS-2B cells incubated for 72 hrs measured by MTT assay; type: toxicity, cell-based
QG-56 = assay: Cytotoxicity against human QG-56 cells assessed as reduction in cell growth incubated for 24 hrs by MTT assay; type: functional, cell-based; conditions: QG-56, 24 h
DU-145 [29] = assay: Cytotoxicity against human DU-145 cells assessed as cell growth inhibition measured after 48 hrs by MTT assay; type: functional, cell-based; conditions: DU-145, 48 h

With `C[C@]12NC(=O)[C@@H](Cc3c1[nH]c1ccccc31)n1c2nc2ccccc2c1=O` the IC50 (L5178Y) was 3600 nM, the IC50 (K562) was 15000 nM and the IC50 [1] was 38800 nM.
Compound `CN1C(=O)N[C@H]2[C@@H]3NC(=O)c4ccc(Br)n4[C@@H]3C[C@]21O` [AGELASTATIN A] has an EC50 (P388 [2]) of 0.052 µg/mL (≈ 0.152 µM), a GI50 (BXPC-3) of 0.089 µg/mL (≈ 0.261 µM) and a GI50 (MCF7 [3]) of 0.033 µg/mL (≈ 0.0967 µM). The GI50 (SF-268 [4]) was 0.038 µg/mL (≈ 0.111 µM), the GI50 (NCI-H460 [5]) was 0.036 µg/mL (≈ 0.106 µM) and the GI50 (DU-145 [6]) was 0.056 µg/mL (≈ 0.164 µM). For the same compound, the GI50 (SK-N-SH) was 0.042 µg/mL (≈ 0.123 µM), the GI50 (SW-1736) was 0.12 µg/mL (≈ 0.352 µM) and the GI50 (FaDu) was 0.24 µg/mL (≈ 0.703 µM). It also gave a GI50 (KM-20L2) of 0.036 µg/mL (≈ 0.106 µM).
With `CC(C)/C=C1\NC(=O)[C@H](CCC(N)=O)n2c1nc1ccccc1c2=O` [AURANTIOMIDE C] the IC50 (HepG2 [7]) was 23.9 µg/mL (≈ 70.3 µM), the IC50 (MCF7 [8]) was 20.5 µg/mL (≈ 60.2 µM) and the IC50 (HCT-116 [9]) was 9.51 µg/mL (≈ 27.9 µM). It also gave an IC50 (HEp-2) of 37.6 µg/mL (≈ 111 µM) and an IC50 (HeLa) of 18.5 µg/mL (≈ 54.3 µM).
In the case of `CS[C@H]1C(=O)N2[C@H]3Nc4ccccc4[C@@]3(c3c[nH]c4ccccc34)[C@H](O)[C@]2(SC)C(=O)N1C` [BIONECTIN C], the EC50 (P388 [10]) is reported as 6.5 µg/mL (≈ 13.5 µM).
`CN1C(=O)[C@]23CC4=CC=C[C@H](O)[C@H]4N2C(=O)[C@@]1(CO)SS3` [GLIOTOXIN] showed an IC50 [11] of 0.15 µg/mL (≈ 0.46 µM), an IC50 (U-937 [12]) of 520 nM and an IC50 (PC-3 [13]) of 15900 nM. For the same compound, the IC50 (HEK293) was 1580 nM, the IC50 (HCT-116 [14]) was 1240 nM and the IC50 (RKO) was 800 nM. It also gave an IC50 (HCT-116 [15]) of 410 nM, an IC50 (SF-268 [16]) of 240 nM and an IC50 (MCF7 [17]) of 80 nM. It also gave an IC50 (NCI-H460 [18]) of 240 nM, an IC50 (HepG2 [19]) of 210 nM and an IC50 (SF-268 [20]) of 240 nM. The IC50 (MCF7 [21]) was 80 nM, the IC50 (HepG2 [22]) was 240 nM and the IC50 (NCI-H460 [23]) was 210 nM. It also gave an IC50 (U-937 [24]) of 200 nM and an IC50 (PC-3 [25]) of 390 nM.
`COC1=C(C)C(=O)C2=C(C1=O)[C@@H]1[C@@H]3CC4=C(C(=O)C(OC)=C(C)C4=O)[C@H](CO)N3[C@@H](C#N)[C@H](C2)N1C` [JOURNNAMYCIN A] gave an IC50 (HCT-116 [26]) of 13 nM, an IC50 (NCI-H460 [27]) of 8000 nM and an IC50 (NCI-H23) of 2300 nM. The IC50 (A549) was 3100 nM, the IC50 at 72 h [28] was 14800 nM and the IC50 (QG-56) was 59 nM. For the same compound, the IC50 (DU-145 [29]) was 29 nM.
